The source of these data is patent US8629100B2, “Method of inhibiting clostridium difficile by administration of oritavancin” (The Medicines Company, priority 2007, dated 2014).

“Also recorded” adds a separate entry of the source.

In assay [1] the test system is C. difficile vegetative cultures and spores. Description: Spiral gradient endpoint analysis MIC. The class given is cell-based. The method, then:
C. difficile PCR ribotypes 001, 106 and 027 were inoculated onto Columbia blood agar and incubated anaerobically (37° C.) for 10 d. Growth was harvested into sterile saline and alcohol shocked in an equal volume of 100% ethanol for 1 h. Alcohol-shocked spore suspensions were mixed by vortexing and sonicated for 5 minutes at room temperature. C. difficile phase-bright (non-germinated) spores were separated from phase-dark (germinated) spores and cellular debris by density gradient centrifugation (4000 rpm 15 minutes) following layering onto 50% (v/v in phosphate buffered saline) Urografin 370 (Schering, Germany). The density gradient centrifugation step was performed twice. Pellets of purified spores were re-suspended in sterile saline (1 mL per 10 Columbia blood agar plates harvested). Percentage phase-bright spores, phase-dark spores and vegetative cells were recorded using phase-contrast microscopy (×100 magnification).
A spiral plater (WASP2, Don Whitley Scientific, UK) was used to apply a logarithmic antibiotic gradient onto the surface of pre-dried (37° C. 20 minutes) Brazier's agar (pH 7). Agar with logarithmic antimicrobial gradients applied to their surface remained at room temperature for 1 h to allow the antimicrobial agent to adsorb into the agar. C. difficile vegetative cultures and spores (˜10^7 cfu/mL) were inoculated onto the agar surface (FIG. 1) with a sterile cotton swab and incubated anaerobically (37° C., 24 h). D-values were measured (in mm) and converted to MICs (Paton, J. H.1990. Int J Exp Clin Chemother. 9, 31-38).

The test system of assay [2] is C. difficile PCR ribotype 027 spores. Description: Phase-contrast microscopy of spore germination/outgrowth. The class given is cell-based. Conditions: 10 mg/L for 2 h, washed 3x in PBS. On the procedure: C. difficile spores were also exposed to 10 mg/L antimicrobial for 2 h, washed 3× in sterile PBS, re-suspended and inoculated into Brazier's broth medium (pH 7). Samples were removed at 2, 4, 6, 24, 32 and 48 h. Slides were viewed under phase-contrast microscopy and percentages of phase-bright spores, phase-dark spores and vegetative cells were recorded (FIG. 4).
Statistical analyses were performed by transforming percentage data using an Arcsin Transformation and analysed using a Wilcoxon signed rank test. P<0.05 was considered statistically significant. Supra-MIC concentrations of all antimicrobials prevented outgrowth but not germination of C. difficile spores.

For assay [3], the system named is C. difficile spores (PCR ribotypes 001, 106 and 027). Description: Viability (recovery) of spores after antibiotic exposure, cellulose acetate filtration (Examples 3A, 3B). The class given is cell-based. On the procedure: The experiments were in general performed by mixing C. difficile spores with an antibiotic, filtering the solution through cellulose acetate filters to collect the spores, applying the spore-containing filters to nutrient agar, and determining the number of spores remaining on the filters after a selected period of time.
Therefore, the initial experiment included dilution of antimicrobial-containing spore suspensions prior to filtration and washing. Reaction volumes were 1 mL for all antimicrobial/control solutions.
1 mL of control (de-ionised water+/−Tween-80) and test (antimicrobial containing) solutions were inoculated with 10 μL C. difficile spores (3 strains; PCR ribotypes 001, 106 and 027). Spore suspensions (time=1 min or 30 min) were transferred to filtration cupules and the appropriate volume of diluent (sterile de-ionised water+/−Tween-80) was added to achieve the dilution factors noted above. Samples were filtered onto cellulose acetate filters and washed with a further 50 mL of the appropriate diluent. Filters were transferred aseptically to Braziers CCEY agar containing 5 mg/L lysozyme and 2% lysed horse blood. This procedure was completed in duplicate. The culture media were incubated in an anaerobic atmosphere at 37° C. for 48 h and the numbers of C. difficile colonies were recorded.
Diluent was first added to filtration cupules. 1 mL reactions were then added to the appropriate diluent (1 min and 30 min after reaction formation) and filtered onto cellulose acetate filters. The filters were washed with 50 mL of the appropriate diluent. The filters were then transferred aseptically to Braziers CCEY agar containing 5 mg/L lysozyme and 2% lysed horse blood. This procedure was completed in duplicate. Culture media were incubated in an anaerobic atmosphere at 37° C. for 48 h and the numbers of C. difficile colonies recorded

The subject of assay [4] is C. difficile PCR ribotype 001 (vegetative, spores). Put plainly: Growth on antibiotic-exposed cellulose acetate filters (Example 3C). The class given is cell-based. Conditions: for Growth of vegetative C. difficile on filters through which antibiotic had been filtered: PCR ribotype 001 overnight culture, anaerobic incubation; for Growth of C. difficile spores on filters through which antibiotic had been filtered: PCR ribotype 001 spores. On the procedure:
(§1) One mL solutions (containing no C. difficile spores) were processed as in Experiment 2B and filters placed onto Braziers CCEY agar. Onto the filters were inoculated 2×20 μL of:
a) Vegetative C. difficile (an overnight culture of PCR ribotype 001)
b) C. difficile spores (PCR ribotype 001), or
(§2) Growth/no growth was recorded following anaerobic incubation.

In assay [5] the test system is Staphylococcus aureus NCTC 6571. The assay is described as above. The class given is cell-based. Conditions: overnight culture. On the procedure: as §1
c) Staphylococcus aureus NCTC 6571 (Oxford strain, overnight culture).
as §2

The subject of assay [6] is C. difficile ATCC 43255. Put plainly: Hamster model of CDI, intravenous administration. The class given is in vivo, Syrian golden hamsters. The method, then: C. difficile ATCC 43255 was used in all experiments. This strain was originally isolated from an abdominal wound and is toxin A+/B+ and binary toxin negative. C. difficile spores were prepared for the infection by incubating C. difficile cells on blood agar plate at 37° C. anaerobically for 7 days, to promote spore formation. The C. difficile colonies were resuspended in phosphate buffered saline (PBS) and mixed with an equal volume of 100% ethanol for one hour. The spores were centrifuged, resuspended in PBS, aliquoted, and frozen at −20° C. Spores were diluted in PBS for oral inoculation into hamsters.
All studies were performed in accordance with protocols that were approved by the Institutional Animal Care and Use Committee. […] One day later (Day 0), animals were infected orally with 10^5 C. difficile spores by oral gavage.
Starting on Day 1 post-infection, either vehicle, vancomycin (50 mg/kg), or oritavancin formulated in 10% hydroxypropyl β-cyclodextrin (HPCD) (50 mg/kg) was administered intravenously […] to the hamsters (n=10/group). A total of either 1, 2 or 3 doses of oritavancin was injected on Days 1, 3, and 5, respectively (q2d).
The infected hamsters received the first dose of antibiotic on day 1 and treatment was repeated each 2 days for up to five days; an untreated group was used as control.

Assay [7] has as its system C. difficile (CD) ATCC 43255. Put plainly: Hamster model of CDI, oral administration. The class given is in vivo, Syrian golden hamsters. As to conditions: for Toxins A and B in caecal contents: ORI 100 mg/kg (PEG400) on Day 20 PI, VA 50 mg/kg once daily.
[8] abbreviates: Example 3A: diluent added after reaction solutions, 1 min and 30 min exposure.
Setting [9] is: Example 3B: diluent added to cupules before reaction solutions, 1 min and 30 min.
The mark [10] stands for this setting: three intravenous doses 50 mg/kg q2d (Days 1, 3, 5).

On to `CN[C@H](CC(C)C)C(=O)N[C@H]1C(=O)N[C@@H](CC(N)=O)C(=O)N[C@H]2C(=O)N[C@H]3C(=O)N[C@H](C(=O)N[C@H](C(=O)O)c4cc(O)cc(O)c4-c4cc3ccc4O)[C@H](O[C@H]3C[C@](C)(N)[C@@H](O)[C@H](C)O3)c3ccc(c(Cl)c3)Oc3cc2cc(c3O[C@@H]2O[C@H](CO)[C@@H](O)[C@H](O)[C@H]2O[C@H]2C[C@](C)(NCc3ccc(-c4ccc(Cl)cc4)cc3)[C@@H](O)[C@H](C)O2)Oc2ccc(cc2Cl)[C@H]1O` [oritavancin, N-(4-(4-chlorophenyl)benzyl)A82846B], for which the “MICs against C. difficile spores lower than against vegetative cells” value in assay [1] (Brazier's agar pH 7, 24 h) was 5-13 fold. Moreover, the “Outgrowth of C. difficile spores prior-exposed to antimicrobial” value in assay [2] is given as “much lower than control; also recorded: significantly inhibited”. Also, the “Recovery of C. difficile spores” value in assay [3] (setting [8]) and in assay [3] (setting [9]) was 0 % of controls throughout. The “Growth of vegetative C. difficile on filters through which antibiotic had been filtered” value in assay [4] was “Greatly reduced numbers”. Besides, the “Growth of C. difficile spores on filters through which antibiotic had been filtered” value in assay [4] is “unrecoverable”. The “Vegetative C. difficile recovered on exposed filters” value in assay [4] (on one plate) was found to be 1 cfu. In addition, in assay [5], the “Growth of S. aureus NCTC 6571 on filters through which antibiotic had been filtered” value is “grew”. Moreover, in assay [6] (2 doses 50 mg/kg intravenous), the “Survival longer than animals with equivalent dose and regimen (2×q2d) of vancomycin” value came out at 5 days. The “Survival prolonged compared to untreated animals” value in assay [6] (one intravenous dose 50 mg/kg (Day 1), in 10% HPCD) is recorded as 4 days; in assay [6] (setting [10]), 7 days; in assay [6] (two intravenous doses 50 mg/kg q2d (Days 1 and 3), in 10% HPCD) it was 5 days. Further, in assay [7] (100 mg/kg once daily oral from Day 2 for 5 days, formulated in PEG400), the “Survival up to 20 days PI” value is reported as “All the animals treated with ORI survived”. The “CD vegetative and spore cells in caecal content” value in assay [7] (20 days PI, formulated in PEG400, LOD 1.47 (TC) and 1.77 (spores) Log 10 CFU/g) was “undetectable”. Also, the “Toxins A and B in caecal contents” value in assay [7] is “undetectable”.
On to `CN[C@H](CC(C)C)C(=O)N[C@H]1C(=O)N[C@@H](CC(N)=O)C(=O)N[C@H]2C(=O)N[C@H]3C(=O)N[C@H](C(=O)N[C@H](C(=O)O)c4cc(O)cc(O)c4-c4cc3ccc4O)[C@H](O)c3ccc(c(Cl)c3)Oc3cc2cc(c3O[C@@H]2O[C@H](CO)[C@@H](O)[C@H](O)[C@H]2O[C@H]2C[C@](C)(N)[C@H](O)[C@H](C)O2)Oc2ccc(cc2Cl)[C@H]1O` [vancomycin], for which, in assay [1] (data not shown), the “MICs for C. difficile vegetative cells versus spores” value was “did not differ substantially”. Also, the “Outgrowth of C. difficile spores prior-exposed to antimicrobial” value in assay [2] was “not observed”. In addition, in assay [3] (setting [8]), the “Recovery of C. difficile spores” value was 25-60 % of controls. In addition, in assay [3] (setting [9]), the “Recovery of C. difficile spores” value was 70-80 % of controls. In assay [4], the “Growth of vegetative C. difficile on filters through which antibiotic had been filtered” value was “grew” and the “Growth of C. difficile spores on filters through which antibiotic had been filtered” value is “good growth”. Also, in assay [5], the “Growth of S. aureus NCTC 6571 on filters through which antibiotic had been filtered” value is on record as “grew”. In assay [6] (50 mg/kg q2d intravenous), the “Proportional survival rate on Day 5” value stood at 30%; the “Treated animals that died between the second and third injections (Days 3 and 5)” value is reported as 70%. Further, in assay [6] (setting [10]), the “Survival prolonged compared to untreated animals” value is 8 days. Also, the “Toxins A and B in caecal contents” value in assay [7] was “High level”.
